Laboratory results as given in patent publication US20220056123A1, “USE OF IL-1BETA BINDING ANTIBODIES” (NOVARTIS AG, priority 2018, published 2022).

What was measured:
[1] = test system: CD34+ blood vessels in trabecular bone; assay: Bone microvasculature after suppression of IL-1β signalling; format: in vivo, BALB/c nude mice and C57BL/6 mice
Method: FIG. 7. IL-1β in the bone microenvironment stimulates expansion of the bone metastatic niche. Effects of adding 40 pg/ml or 5 ng/ml recombinant IL-1β to MDA-MB-231 or T47D breast cancer cells is shown in (a) and effects on adding 20 pg/ml, 40 pg/ml or 5 ng/ml IL-1B on proliferation of HS5, bone marrow, or OB1, osteoblasts, are shown in b) and c) respectively. (d) IL-1 driven alterations to the bone vasculature was measured following CD34 staining in the trabecular region of the tibiae from 10-12-week old female IL-1R1 knockout mice. […] Data are shown as mean+/−SEM, *=P<0.01, **=P<0.001, ***=P<0.0001.
FIG. 8. Suppression of IL-1β signalling affects bone integrity and vasculature. […] Data shown are mean+/−SEM, *=P<0.01, **=P<0.001, ***=P<0.0001 compared with control.
To model human breast cancer metastasis to human bone implants two human bone discs were implanted subcutaneously into 10-week old female NOD SCID mice (n=10/group) under isofluorane anaesthetic. Mice received an injection of 0.003 mg vetergesic and Septrin was added to the drinking water for 1 week following bone implantation. Mice were left for 4 weeks before injecting 1×10^5 MDA-MB-231 Luc2-TdTomato, MCF7 Luc2 or T47D Luc2 cells in 20% Martigel/79% PBS/1% toluene blue into the two hind mammary fat pads. Primary tumor growth and development of metastases was monitored weekly using an IVIS […] system (Caliper Life Sciences) following sub-cutaneous injection of 30 mg/ml D-luciferin (Invitrogen). On termination of experiments mammary tumors, circulating tumor cells, serum and bone metastases were resected. RNA was processed for downstream analysis by real time PCR, and cell lysates were taken for protein analysis and whole tissue for histology as previously described (Nutter et al., 2014; Ottewell et al., 2014a). […] Tumor cells, serum, and bone were subsequently resected for downstream analysis. Bone metastases were investigated following injection of 5×10^5 MDA-MB-231 GFP (control), MDA-MB-231-IV, MDA-MB-231-IL-1B-positive or MDA-MB-231-IL-1R1-positive cells into the lateral tail vein of 6 to 8-week old female BALB/c nude mice (n=12/group). Tumor growth in bones and lungs was monitored weekly by GFP imaging in live animals. Mice were culled 28 days after tumor cell injection at which timepoint hind limbs, lungs and serum were resected and processed for microcomputed tomography imaging (pCT), histology and ELISA analysis of bone turnover markers and circulating cytokines as described (Holen et al., 2016).

MDA-MB231 = assay: TNBC MDA-MB231 xenograft in humanized BLT mice; format: in vivo, humanized mouse; conditions: single agent arm, compared to isotype control
Method: • I. Tumor models: The role of IL-1β in tumor immunity and efficacy of IL-1β blocking antibodies were tested in the following preclinical models: • Xenograft tumors in humanized mouse models: NSCLC (H358), TNBC (MDA-MB231) and CRC (SW480) • Syngeneic tumor models: TNBC (4T1) and lung (LL-2) cancer • II. […] Combination treatments include chemotherapeutic agent, docetaxel (6.25 mg/Kg QW IV), PD-1 pathway inhibitors (anti-human PD-1, pembrolizumab 10 mg/Kg Q5D IP or anti-mouse PD-1, clone 1D2 10 mg/Kg QW IP) and anti-mouse VEGF blocking antibody (clone 4G3, 5 mg/Kg Q5D) were used in combination with anti-IL-1β antibody. Appropriate isotype controls were used. In all experiments, dosing was initiated after tumor implantation. • III. Experimental readouts: activity of therapeutic agents in preclinical models were assessed by the following: • Tumor volume was determined by measurement with calipers throughout the course of the study. Tumor weights in milligrams were determined at end of study • Immunohistochemistry analysis was performed on FFPE NSCLC (H358) xenograft tissue • Changes in immune populations in peripheral blood in CRC (SW480) xenograft humanized model and tumors in syngeneic models (4T1 and LL-2) were assessed by flow cytometry using markers for T cell, myeloid populations

[2] = CANTOS immunogenicity, bridging ECLIA for anti-drug antibodies; format: in vivo, human
Method: During the CANTOS trial, blood samples for immunogenicity assessments were collected at baseline Month 12, 24 and end of study visit. Immunogenicity was analyzed using a bridging immunogenicity electrochemiluminescence immunoassay (ECLIA). Samples were pre-treated with acetic acid and neutralized in buffer containing labeled drug (biotinylated ACZ885 and sulfo-TAG (Ruthenium) labeled ACZ885). Anti-canakinumab antibodies (anti-drug antibodies) were captured by a combination of biotinylated and sulfo-TAG labeled forms of ACZ885. Complex formation was subsequently detected by electrochemiluminescence by capturing complexes on Mesoscale Discovery Streptavidin (MSD) plates.

[3] = test system: patients with atherosclerosis who had had a myocardial infarction; conditions: compared with placebo, median follow-up 3.7 years, cited from earlier work

canakinumab: high-affinity, fully human monoclonal antibody of the IgG1/k to interleukin-1β
average length of CD34+ blood vessels in trabecular bone ([1]; IL-1Ra 1 mg/kg daily (BALB/c nude), canakinumab single dose (C57BL/6), p<0.01): reduced the average length | endothelin 1 concentration (ELISA) ([1]; compared with control, p<0.01): reduced concentrations | VEGF concentration (ELISA) ([1]; compared with control, p<0.01 IL-1R antagonist, p<0.001 canakinumab): reduced concentrations | animals with slower tumor growth (MDA-MB231): 100 % of animals | patients with treatment-emergent anti-canakinumab antibodies ([2]; canakinumab 150 mg group): 0.4% | patients with treatment-emergent anti-canakinumab antibodies ([2]; canakinumab 300 mg group): 0.3% | association of anti-drug antibodies with AEs or hsCRP response ([2]; in vivo): not associated with immunogenicity related AEs or altered hsCRP response | reductions in concentrations of hsCRP ([3]; dose-dependent (50, 150, 300 mg sc every 3 months)): 26-41% | reductions in concentrations of interleukin 6 ([3]; dose-dependent): 25-43%
